Results taken from patent US6831079B1, “Vasopressin agonist formulation and process” (American Cyanamid Company, priority 1999, dated 2004).
Values joined by “and” are separate entries in the source; they are usually repeats but may differ in a detail not shown here. Equal entries are not always repeated.

What was measured:
Vasopressin V2 = Vasopressin V2 (Rattus norvegicus, UniProt Q00788); experiment: Vasopressin V2 agonist effects in normal conscious water-loaded rats; format: in vivo; design: from tissue; host or cells: whole living Sprague-Dawley rat; the receptor is the animal's own (renal, by own knowledge); details: Sprague-Dawley (CD) rats, 10 mg/kg oral; for Osmolality (% Increase): change in osmolality as percent of control; for Urine Volume (% decrease): vs. control, urine collected four hours
Chain of Vasopressin V2 (Q00788 whole entry): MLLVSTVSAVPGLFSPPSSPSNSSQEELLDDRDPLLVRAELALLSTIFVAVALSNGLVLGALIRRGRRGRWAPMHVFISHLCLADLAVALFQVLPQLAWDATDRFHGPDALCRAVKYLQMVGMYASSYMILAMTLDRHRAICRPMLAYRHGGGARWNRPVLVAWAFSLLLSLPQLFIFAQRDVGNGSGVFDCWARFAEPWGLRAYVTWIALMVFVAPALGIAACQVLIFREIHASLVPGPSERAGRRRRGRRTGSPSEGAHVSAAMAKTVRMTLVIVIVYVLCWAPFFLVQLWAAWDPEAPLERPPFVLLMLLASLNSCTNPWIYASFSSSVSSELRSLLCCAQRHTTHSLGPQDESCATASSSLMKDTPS
Source text: Vasopressin V2 Agonist Effects of Test Compounds in Normal Conscious Water-loaded Rats
Male or female normotensive Sprague-Dawley rats (Charles River Laboratories, Inc., Kingston, N.Y.) of 350-500 g body weight were supplied with standard rodent diet (Purina Rodent Lab. Chow 5001) and water ad libitum. On the day of test, rats were placed individually into metabolic cages equipped with devices to separate the feces from the urine and containers for collection of urine. […] The vehicle used was 20% dimethylsulfoxide (DMSO) in 2.5% preboiled corn starch. Thirty minutes after dosing the test compound, rats were gavaged with water at 30 ml/kg into the stomach using a feeding needle. During the test, rats were not provided with water or food. Urine was collected for four hours after dosing of the test compound. At the end of four hours, urine volume was measured. Urinary osmolality was determined using a Fiske One-Ten Osmometer (Fiske Associates, Norwood, Mass., 02062) or an Advanced CRYOMATIC Osmometer, Model 3C.2 (Advanced Instruments, Norwood, Mass.). Determinations of Na^+, K^+ and Cl^− ion were carried out using ion specific electrodes in a Beckman SYNCHRON EL-ISE Electrolyte System analyzer. The urinary osmolality should increase proportionally. In the screening test, two rats were used for each compound. If the difference in the urine volume of the two rats was greater than 50%, a third rat was used.

Row | melting point | Osmolality (% Increase) (Vasopressin V2) [%] | Urine Volume (% decrease) (Vasopressin V2) [%] | Molecule
1 | 137 to 138 °C and 141 to 143 °C | 325 | 70 | Cc1ccn(-c2ccc(C(=O)N3Cc4cccn4Cc4ccccc43)c(Cl)c2)n1 (single isomer, unassigned) [Example 9A]
2 | 178 to 180 °C | 214 | 52 | Cc1ccn(-c2ccc(C(=O)N3Cc4ccc(C)n4Cc4ccccc43)c(Cl)c2)n1 [Example 18, [2-Chloro-4-(3-methylpyrazol-1-yl)-phenyl]-(3-methyl-5H,11H-pyrrolo[2,1-c][1,4]benzodiazepin-10-yl)-methanone]
3 | 105 to 110 °C | 362 | 68 | CCCC(=O)n1ccc(-c2ccc(C(=O)N3Cc4cccn4Cc4ccccc43)cc2)n1 [Example 33, 1-{3-[4-(5H,11H-Pyrrolo[2,1-c][1,4]benzodiazepine-10-carbonyl)-phenyl]-pyrazol-1-yl}-butan-1-one]
4 | 150 to 157 °C | 370 | 71 | O=C(c1ccc(-c2ccn(C(=O)c3ccc(F)cc3Cl)n2)cc1)N1Cc2cccn2Cc2ccccc21 [Example 37, {4-[1-(2-Chloro-4-fluoro-benzoyl)-1H-pyrazol-3-yl]-phenyl}-(5H,11H-pyrrolo[2,1-c][1,4]benzodiazepin-10-yl}methanone]
5 | 225 to 227 °C |  |  | O=C(c1ccc(-c2ncn[nH]2)cc1)N1Cc2cccn2Cc2ccccc21 [Example 48, (5H,11H-Pyrrolo[2,1-c][1,4]benzodiazepin-10-yl)-[4-(2H-[1,2,4]triazol-3-yl)-phenyl]-methanone]
6 |  | 223 | 53 | Cc1n[nH]c(-c2ccc(C(=O)N3Cc4cccn4Cc4ccccc43)cc2)n1 [Example 50, [4-(5-Methyl-2H-[1,2,4]triazol-3-yl)-phenyl]-(5H,11H-pyrrolo[2,1-c][1,4]-benzodiazepin-10-yl)-methanone]
7 | 193 to 195 °C |  | 72 | Cc1nc(-c2ccc(C(=O)N3Cc4cccn4Cc4ccccc43)cc2)n(C)n1 [Example 51, [4-(2,5-Dimethyl-2H-[1,2,4]triazol-3-yl)-phenyl]-(5H,11H-pyrrolo[2,1-c]-[1,4]benzodiazepin-10-yl)-methanone]
8 | 177 to 179 °C | 261 | 66 | Cc1noc(-c2ccc(C(=O)N3Cc4cccn4Cc4ccccc43)cc2)n1 [Example 52, [4-(3-Methyl[1,2,4]oxadiazol-5-yl)-phenyl]-(5H,11H-pyrrolo-[2,1-c][1,4]-benzodiazepin-10-yl)-methanone]
9 |  | 324 | 49 | O=C(c1ccc(-n2cccn2)cc1)N1Cc2cccn2Cc2ccccc21 [Example 58, [4-(Pyrazol-1-yl)-phenyl]-(5H,11H-pyrrolo[2,1-c][1,4]benzodiazepin-10-yl)-methanone]
10 |  | 607 | 80 | Cc1ccn(-c2ccc(C(=O)N3Cc4cccn4Cc4ccccc43)cc2)n1 [Example 59, [4-(3-Methyl-pyrazol-1-yl)-phenyl]-(5H,11H-pyrrolo[2,1-c][1,4]-benzodiazepin-10-yl)-methanone]
11 |  | 245 | 59 | Cc1cc(C)n(-c2ccc(C(=O)N3Cc4cccn4Cc4ccccc43)cc2)n1 [Example 61, [4-(3,5-Dimethyl-pyrazol-1-yl)-phenyl]-(5H,11H-pyrrolo[2,1-c][1,4]-benzodiazepin-10-yl)-methanone]
12 | 171 to 172 °C |  |  | O=C(c1ccc(-n2ccnc2)cc1)N1Cc2cccn2Cc2ccccc21 [Example 63, [4-(Imidazol-1-yl)-phenyl]-(5H,11H-pyrrolo[2,1-c][1,4]benzodiazepin-10-yl)-methanone]
13 |  | 90 | 13 | N#Cc1ccc(C(=O)N2Cc3cccn3Cc3ccccc32)c(Cl)c1 [Example 77, 3-Chloro-4-(5H,11H-pyrrolo[2,1-c][1,4]benzodiazepine-10-carbonyl)-benzonitrile]
14 |  | 490 | 82 | Cc1n[nH]c(-c2ccc(C(=O)N3Cc4cccn4Cc4ccccc43)c(Cl)c2)n1 [Example 81, [2-Choro-4-(5-methyl-2H-[1,2,4]triazol-3-yl)phenyl]-(5H,11H-pyrrolo[2,1-c][1,4]benzodiazepine-10-carbonyl)-methanone]
15 |  | 436 | 76 | Cc1nc(-c2ccc(C(=O)N3Cc4cccn4Cc4ccccc43)c(Cl)c2)n(C)n1 [Example 85, 4-[(2,5-Dimethyl-2H-[1,2,4]triazol-3-yl)-2-chloro-phenyl]-(5H,11H-pyrrolo[2,1-c][1,4]benzodiazepin-10-carbonyl)-methanone]
16 |  | 413 | 61 | Cc1ccn(-c2ccc(C(=O)N3Cc4cccn4Cc4ccccc43)c(Br)c2)n1 [Example 90]
17 |  | 69 | 22 | O=C(c1ccc(F)cc1F)N1Cc2cccn2Cc2ccccc21 [Example 91, (2,4-Difluoro-phenyl)-(5H,11H-pyrrolo[2,1-c][1,4]benzodiazepin-10-yl)-methanone]
18 |  | 300 | 68 | Cc1ccn(-c2ccc(C(=O)N3Cc4ccnn4Cc4ccccc43)c(C(F)(F)F)c2)n1 [Example 95, [4-(3-Methylpyrazol-1-yl)-2-trifluoromethylphenyl]-(5H,11H-pyrazolo[5,1-c]-[1,4]benzodiazepin-10-yl)-methanone]
19 | 191 to 193 °C |  |  | Cc1ncn(-c2ccc(C(=O)N3Cc4cccn4Cc4ccccc43)c(Cl)c2)n1 [Example 102, [2-Chloro-4-(3-methyl-1,2,4-triazol-1-yl)-phenyl](5H,11H-pyrrolo[2,1-c]-[1,4]benzodiazepin-10-yl)-methanone]
20 | 148 to 150 °C |  |  | Cc1ncn(-c2ccc(C(=O)N3Cc4cccn4Cc4ccccc43)c(C(F)(F)F)c2)n1 [Example 103, [4-(3-Methyl-1,2,4-triazol-1yl)-2-trifluoromethyl-phenyl](5H,11H-pyrrolo[2,1-c][1,4]benzodiazepin-10-yl)-methanone]
21 |  | 125 | 31 | COc1cc(-n2ccc(C)n2)ccc1C(=O)N1Cc2cccn2Cc2ccccc21 [Example 107, [2-Methoxy-4-(3-methyl-pyrazol-1-yl)-phenyl](5H,11H-pyrrolo[2,1-c][1,4]-benzodiazepin-10-yl) Methanone]
22 |  | 145 | 30 | COc1cc(-n2ccc(C)n2)ccc1C(=O)N1Cc2ccc(CN(C)C)n2Cc2ccccc21 [Example 108, (3-Dimethylaminomethyl-5H,11H-pyrrolo[2,1-c][1,4]benzodiazepin-10-yl)[2-methoxy-4-(3-methyl-pyrazol-1-yl)-phenyl]-methanone]
23 |  | 95 | 21 | Cc1ccn(-c2ccc(C(=O)N3Cc4cccn4Cc4ccccc43)c(O)c2)n1 [Example 109]
24 |  | 229 | 66 | Cn1cc(-c2ccc(C(=O)N3Cc4cccn4Cc4ccccc43)c(Cl)c2)cn1 [Example 115, [2-Chloro-4-(1-methyl-1H-pyrazol-4-yl)phenyl) (5H,11H-pyrrolo[2,1-c][1,4]-benzodiazepin-10-yl)-methanone]
25 |  | 256 | 66 | Cc1ccn(-c2ccc(C(=O)N3Cc4ccnn4Cc4ccccc43)c(Cl)c2)n1 [Example 116, [2-Chloro-4-(3-methyl-pyrazol-1-yl)-phenyl]-(4H,10H-pyrazolo[5,1-c][1,4]-benzodiazepin-5-yl)-methanone]
26 |  | 311 | 68 | Cc1ccn(-c2ccc(C(=O)N3Cc4nnnn4Cc4ccccc43)c(Cl)c2)n1 [Example 117]
27 |  | 269 | 66 | Cn1ccc(-c2ccc(C(=O)N3Cc4ccnn4Cc4ccccc43)cc2)n1 [Example 120A, [4-(1-Methyl-1H-pyrazol-3-yl)phenyl](4H,10H-pyrazolo[5,1c][1,4]-benzodiazepin-5-yl)methanone]
28 |  | 272 | 67 | Cn1nccc1-c1ccc(C(=O)N2Cc3ccnn3Cc3ccccc32)cc1 [Example 120B, [4-(2-Methyl-1H-pyrazol-3-yl)phenyl](4H,1OH-pyrazolo[5,1c][1,4]-benzodiazepin-5-yl)methanone]
29 |  | 291 | 56 | [2-Chloro-4-(2-methyl-2H-[1,2,4]triazol-3-yl)-phenyl]-(5H,11H-pyrrolo [2,1-c][1,4]benzodiazepin-10-carbonyl)-methanone [Example 84]
30 |  | 663 | 88 | [2-Chloro-4-(3-methyl-4-ethynyl-phenyl) (5H,11H-pyrrolo[2,1-c][1,4]-benzodiazepin-10-yl)-methanone [Example 123]
